Consider 25 molecules from patent US10280169B2, “Biaryl bruton's tyrosine kinase inhibitors” (BIOGEN MA INC., priority 2013, dated 2019).

As a reminder, the IC50 is the concentration that inhibits the measured activity by half.

The target of this test is T1, BTK (Homo sapiens, UniProt Q06187).
T1 construct: purchased Upstate 14-552
T1 sequence (Q06187 whole entry): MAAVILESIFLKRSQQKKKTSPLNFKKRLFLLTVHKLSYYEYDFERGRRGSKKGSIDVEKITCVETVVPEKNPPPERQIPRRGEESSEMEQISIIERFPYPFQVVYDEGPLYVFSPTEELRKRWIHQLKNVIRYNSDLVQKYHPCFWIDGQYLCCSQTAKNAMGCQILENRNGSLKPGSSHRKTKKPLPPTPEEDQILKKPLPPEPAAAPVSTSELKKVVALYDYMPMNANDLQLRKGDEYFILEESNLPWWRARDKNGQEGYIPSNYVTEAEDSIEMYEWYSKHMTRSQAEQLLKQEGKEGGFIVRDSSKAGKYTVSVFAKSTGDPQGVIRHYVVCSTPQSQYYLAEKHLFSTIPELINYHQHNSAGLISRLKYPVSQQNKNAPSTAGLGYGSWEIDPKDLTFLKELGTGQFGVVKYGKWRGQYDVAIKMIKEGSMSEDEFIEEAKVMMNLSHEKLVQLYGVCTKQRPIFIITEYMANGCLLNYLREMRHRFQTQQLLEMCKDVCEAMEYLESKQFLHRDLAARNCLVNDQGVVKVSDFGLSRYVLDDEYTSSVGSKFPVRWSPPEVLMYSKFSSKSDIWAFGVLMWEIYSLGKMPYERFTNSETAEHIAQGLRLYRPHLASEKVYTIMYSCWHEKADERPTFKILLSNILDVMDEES
Kind of test: In vitro BTK kinase assay: BTK-POLYGAT-LS assay. Type of test: biochemical. The conditions noted are these: 10 uM ATP, read-out: IC50 (10 uMATP).
For `O=C(NCc1ccc(-c2ncnc3[nH]ccc23)cc1)c1ccc(C(F)(F)F)cn1` [Compound I-146], the IC50 is 100 to 999 nM.

Consider `Cc1cc(CNC(=O)c2ccc(C(C)(C)C)cc2)ccc1-c1ncnc2[nH]ccc12` [Compound I-148], for which the IC50 fell in the range of 1000 to 10000 nM. Turning to `Cc1c(-c2ncnc3[nH]ccc23)ccc2c1CCCC2NC(=O)c1ccc(C(C)(C)C)cc1` (stereo not shown) [Compound I-155], the 50% inhibitory concentration (IC50) lay within 1000 to 10000 nM. With `CC(C)(C)c1ccc(C(=O)NCc2ccc(-c3ncnc4[nH]ccc34)cc2C(F)(F)F)cc1` [Example I-3, N-(4-(7H-pyrrolo[2,3-d]pyrimidin-4-yl)-2-(trifluoromethyl)benzyl)-4-(tert-butyl)benzamide], the IC50 fell in the range of 10 to 99 nM. As for `CC(C)(C)c1ccc(C(=O)NCc2ccc(-c3ncnc4[nH]ccc34)cc2C(F)(F)F)nc1` [Example I-4, N-(4-(7H-pyrrolo[2,3-d]pyrimidin-4-yl)-2-(trifluoromethyl)benzyl)-5-(tert-butyl)picolinamide], the figure is 10 to 99 nM; as for `CC(C)(C)c1ccc(C(=O)NCc2ccc(-c3ncnc4[nH]ccc34)cc2Cl)nc1` [Example I-5, 5-(tert-butyl)-N-(2-chloro-4-(7H-pyrrolo[2,3-d]pyrimidin-4-yl)benzyl)picolinamide], 10 to 99 nM; as for `CC(C)(C)c1ccc(C(=O)NCc2ccc(-c3ncnc4[nH]ccc34)cc2C#N)nc1` [Example I-6, 5-(tert-butyl)-N-(2-cyano-4-(7H-pyrrolo[2,3-d]pyrimidin-4-yl)benzyl)picolinamide], 10 to 99 nM. Consider `CC(C)(C)c1ccc(C(=O)NCc2ccc(-c3ncnc4[nH]ccc34)cc2C(N)=O)nc1` [Example I-7, 5-(tert-butyl)-N-(2-carbamoyl-4-(7H-pyrrolo[2,3-d]pyrimidin-4-yl)benzyl)picolinamide], for which the 50% inhibitory concentration (IC50) lay within 1000 to 10000 nM. Consider `CC(C)(C)c1ccc(C(=O)NCc2ccc(-c3ncnc4[nH]ccc34)cc2C(N)=O)cc1` [Example I-9, 4-(tert-butyl)-N-(2-carbamoyl-4-(7H-pyrrolo[2,3-d]pyrimidin-4-yl)benzyl)benzamide], for which the IC50 was in the range of 1000 to 10000 nM. As for `CCc1cc(-c2ncnc3[nH]ccc23)ccc1CNC(=O)c1ccc(C(C)(C)C)cc1` [Example I-10, 4-(tert-butyl)-N-(2-ethyl-4-(7H-pyrrolo[2,3-d]pyrimidin-4-yl)benzyl)benzamide], the figure is 10 to 99 nM; as for `CCc1cc(-c2ncnc3[nH]ccc23)ccc1CNC(=O)c1ccc(C(C)(C)C)cn1` [Example I-11, 5-(tert-butyl)-N-(2-ethyl-4-(7H-pyrrolo[2,3-d]pyrimidin-4-yl)benzyl)picolinamide], under 10 nM. In the case of `CC(C)(C)c1ccc(C(=O)NCc2ncc(-c3ncnc4[nH]ccc34)cc2Cl)nc1` [Example I-12], the IC50 is 100 to 999 nM. On to `CC(C)(C)c1ccc(C(=O)NCc2cc(F)c(-c3ncnc4[nH]ccc34)cc2Cl)nc1` [Example I-13, 5-(tert-butyl)-N-(2-chloro-5-fluoro-4-(7H-pyrrolo[2,3-d]pyrimidin-4-yl)benzyl)picolinamide], for which the IC50 is 10 to 99 nM. For `CC(C)(C)c1ccc(C(=O)NC2CCCc3cc(-c4ncnc5[nH]ccc45)ccc32)cc1` (stereo not shown) [Example I-14, N-(6-(7H-pyrrolo[2,3-d]pyrimidin-4-yl)-1,2,3,4-tetrahydronaphthalen-1-yl)-4-(tert-butyl)benzamide] the value was 10 to 99 nM; for `CC(C)(C)c1ccc(C(=O)NC2CCCc3cc(-c4ncnc5[nH]ccc45)ccc32)nc1` (stereo not shown) [Example I-15, N-(6-(7H-pyrrolo[2,3-d]pyrimidin-4-yl)-1,2,3,4-tetrahydronaphthalen-1-yl)-5-(tert-butyl)picolinamide], 10 to 99 nM; for `O=C(NC1CCCc2cc(-c3ncnc4[nH]ccc34)ccc21)c1nc2c(s1)CCCC2` (stereo not shown) [Example I-17, N-(6-(7H-pyrrolo[2,3-d]pyrimidin-4-yl)-1,2,3,4-tetrahydronaphthalen-1-yl)-4,5,6,7-tetrahydrobenzo[d]thiazole-2-carboxamide], 10 to 99 nM. In the case of `Cc1cc(-c2ncnc3cc(C4CCS(=O)(=O)CC4)[nH]c23)ccc1CNC(=O)c1cnc(C(C)(C)C)s1` [Example I-23, 2-(tert-butyl)-N-(4-(6-(1,1-dioxidotetrahydro-2H-thiopyran-4-yl)-5H-pyrrolo[3,2-d]pyrimidin-4-yl)-2-methylbenzyl)thiazole-5-carboxamide], the half-inhibitory concentration (IC50) was under 10 nM.

As to `Cc1cc(-c2ncnc3cc(C4CCS(=O)(=O)CC4)n(C)c23)ccc1CNC(=O)c1cnc(C(C)(C)C)s1` [Example I-24, 2-(tert-butyl)-N-(4-(6-(1,1-dioxidotetrahydro-2H-thiopyran-4-yl)-5-methyl-5H-pyrrolo[3,2-d]pyrimidin-4-yl)-2-methylbenzyl)thiazole-5-carboxamide], the IC50 lay in the range of 10 to 99 nM. As for `Cc1cc(-c2ncnc3c2cc(-c2cnn(C)c2)n3C)ccc1CNC(=O)c1cnc(C(C)(C)C)s1` [Example I-27, 2-(tert-butyl)-N-(2-methyl-4-(7-methyl-6-(1-methyl-1H-pyrazol-4-yl)-7H-pyrrolo[2,3-d]pyrimidin-4-yl)benzyl)thiazole-5-carboxamide], the figure is 10 to 99 nM; as for `Cc1cc(-c2ncnc3c2cc(-c2cn(C)nc2C)n3C)ccc1CNC(=O)c1cnc(C(C)(C)C)s1` [Example I-28, 2-(tert-butyl)-N-(4-(6-(1,3-dimethyl-1H-pyrazol-4-yl)-7-methyl-7H-pyrrolo[2,3-d]pyrimidin-4-yl)-2-methylbenzyl)thiazole-5-carboxamide], 10 to 99 nM; as for `CC(C)(C)c1ncc(C(=O)NC(CO)c2ccc(-c3ncnc4cc(C5=CCS(=O)(=O)CC5)[nH]c34)cc2)s1` (stereo not shown) [Example I-29, 2-(tert-butyl)-N-(1-(4-(6-(1,1-dioxido-3,6-dihydro-2H-thiopyran-4-yl)-5H-pyrrolo[3,2-d]pyrimidin-4-yl)phenyl)-2-hydroxyethyl)thiazole-5-carboxamide], 10 to 99 nM. In the case of `Cc1cc(-c2ncnc3[nH]c(-c4cnn(C)c4)cc23)ccc1CNC(=O)c1cc2c(s1)CCOC2` [Example I-33, N-(2-methyl-4-(6-(1-methyl-1H-pyrazol-4-yl)-7H-pyrrolo[2,3-d]pyrimidin-4-yl)benzyl)-6,7-dihydro-4H-thieno[3,2-c]pyran-2-carboxamide], the IC50 was under 10 nM. For `Cn1cc(-c2cc3ncnc(-c4ccc5c(c4)CCCC5NC(=O)c4cnc(C(C)(C)C)s4)c3[nH]2)cn1` (stereo not shown) [Example I-37, 2-(tert-butyl)-N-(6-(6-(1-methyl-1H-pyrazol-4-yl)-5H-pyrrolo[3,2-d]pyrimidin-4-yl)-1,2,3,4-tetrahydronaphthalen-1-yl)thiazole-5-carboxamide] the value was under 10 nM.

On to `Cc1cc(-c2ncnc3cc(-c4cnn(C)c4)n(C)c23)ccc1CNC(=O)c1cnc(C(C)(C)C)s1` [Example I-38, 2-(tert-butyl)-N-(2-methyl-4-(5-methyl-6-(1-methyl-1H-pyrazol-4-yl)-5H-pyrrolo[3,2-d]pyrimidin-4-yl)benzyl)thiazole-5-carboxamide], for which the half-maximal inhibitory concentration (IC50) is under 10 nM.

Turning to `Cc1cc(-c2ncnc3nc(N4CCC(N(C)C)C4)[nH]c23)ccc1CNC(=O)c1cnc(C(C)(C)C)s1` (stereo not shown) [Example I-50, 2-(tert-butyl)-N-(4-(8-(3-(dimethylamino)pyrrolidin-1-yl)-7H-purin-6-yl)-2-methylbenzyl)thiazole-5-carboxamide], the 50% inhibitory concentration (IC50) was under 10 nM.
